Results on three compounds are retold here after US8313752B2, “Macrocyclic lactone combination compositions, vaccines and methods for producing same” (Merial Limited, priority 2009, dated 2012).

A short description of series [1]: ML residues in milk of lactating dairy cows after single IM dose of ML/vaccine combination (LC-MS/MS). The following applies: for Residues in milk at 7 days after treatment relative to ACVM MRLs / Residues in milk at 21 days after treatment relative to LOQ: 0.3 and 0.4 mg/kg IM; for concentration at 21 day / concentration at 7 day / concentration at 14 day: female, Friesian and Friesian cross, cattle, intramuscular; for concentration at 21 day / ML residue in milk, Day 7 / ML residue in milk, Day 14 / ML residue in milk, Day 21 / concentration at 7 day / concentration at 14 day / ML residue in milk fat, Day 7 / ML residue in milk fat, Day 14 / ML residue in milk fat, Day 21: individual cows. Type of series: in vivo, Dairy cows (Friesian and Friesian cross). Here is the method:
(§1) Study Objectives: 1) To measure ML residues in milk and tissues of lactating dairy cows after a single dose of an experimental formulation of eprinomectin, ivermectin, moxidectin or doramectin combined with an inactivated rotavirus, coronavirus and Escherichia coli vaccine was administered by intramuscular injection at 0.3 and 0.4 mg macrocyclic lactone/kg bodyweight. 2) To evaluate local tissue irritancy of the experimental formulations when administered to cattle by intramuscular injection.
Experimental formulations of each of four macrocyclic lactones were separately combined with equal parts of a registered vaccine, Rotavec® Corona (Schering-Plough). The recommended dose of Rotavec® Corona is 2 mL per animal, which was diluted to produce 4 mL of ML/vaccine combination. Each ML/vaccine combination contained 40 mg/mL macrocyclic lactone.
Methods: On day −5, fifty-four animals were identified for screening and were checked for mastitis by palpation of the mammary gland, visualization of the mammary secretions and Rapid Mastitis Test (RMT, Immucell, Portland, Me.). Individual milk samples were collected for somatic cell count (SCC) and thirty-three animals that met the inclusion criteria were selected for the study. Of the thirty-three animals, the cow with the highest average daily milk yield, as assessed over a seven-day period, was allocated as the control. The remaining thirty-two animals were ranked from highest to lowest on average daily milk yield, over the same time period, and divided into four blocks of eight animals each. A random number was generated for each animal using the Microsoft Excel random number generator function. Within each block, the lowest random number was allocated to Group 1, the second lowest to Group 2 and sequentially through to Group 8, creating eight groups of four animals each (Table 18).
On Day 0, the cows were weighed and blood samples were collected from all animals in Groups 1 and 2 for use in a subsequent plasma eprinomectin assay. The blood samples were stored frozen at or colder than −18° C. pending laboratory analysis. Each animal was treated with the indicated formulation at the appropriate dose rate. Doses were calculated based upon the animal's Day 0 bodyweight to provide approximately 40 mg ML/mL. Calculated doses were rounded up to the nearest 0.2 mL.
(§2) The formulations were administered by deep intramuscular injection in the anterior neck region. Injection sites were clean and dry and inspected for lesions prior to injection. Injections were administered with a different 10 mL syringe for each product. A sterile 18 gauge 1½ inch needle was used for each injection. The time of treatment was recorded. Evidence of pain on injection was assessed.
Blood samples were collected from all animals in Groups 1 and 2 for plasma eprinomectin assay on Days 1, 3 and 7 and stored frozen as described. The time of blood collection was recorded. Herd test equipment (De Laval) was used to collect an approximately 2% sample representative of the entire milking for each individual cow at the morning milking on each of Days 1-10 following treatment, and at the morning milking on Days 14, 21 and 35. Duplicate subsamples were decanted for each cow in Groups 1-4 and 7-9 and triplicate subsamples were decanted for each cow in Groups 5-6. Each sample from treated animals measured approximately 30 mL. The start and finish times for each milking of the 33 study animals were recorded to give an estimate of the actual time of milk sample collection.
The study animals were milked after the main herd. The milk line was thoroughly flushed with cold water prior to milking the study animals. The herd test equipment was cleaned between samplings. It was washed “in-line” with the milking plant wash. Sample vessels were then further cleaned through a dishwasher. The sampler connections were further cleaned by soaking in hot acid, then rinsed. Milk yields at each milking at which samples were collected were measured and recorded. […]

Series [2] has as its system cattle. As to the kind of experiment: Local tissue irritancy / injection site reactions after intramuscular injection. Conditions: for Injection site reactions, Count, Day 1 / Injection site reactions, Count, Day 3 / Injection site reactions, Count, Day 7 / Injection site reactions, Count, Day 14 / Injection site reactions, Count, Day 21: cows with reaction in group of 4; for Animals with injection site reactions that persisted at least until 21 days after treatment: group of 4 cows. Type of series: in vivo, Dairy cows (Friesian and Friesian cross). How it is done: as §1, §2
Injection sites were examined by inspection and palpation at the morning milking on Days 1, 3, 7 and 14. Any visible or palpable reactions were described and measured (width, length and depth). Reactions that persisted after day 14 were re-evaluated on Day 21.

For series [3] the following is noted: cited from earlier work.
For series [4] the following is noted: lactating cattle; cited from earlier work.
The mark [5] stands for this setting: milk, 0.3 mg/kg, nominal 0.3 mg/kg single IM dose of ML/Rotavec Corona combination, milk (whole milk), read-out: ML residue in milk, Day 21.
Setting [6] is: nominal 0.3 mg/kg single IM dose of ML/Rotavec Corona combination, milk (whole milk).
Setting [7] is: nominal 0.4 mg/kg single IM dose of ML/Rotavec Corona combination, milk (whole milk).
Where [8] appears, read: administered topically to cattle.
Where [9] appears, read: nominal 0.3 mg/kg single IM dose of ML/Rotavec Corona combination, milk fat.
[10] abbreviates: nominal 0.4 mg/kg single IM dose of ML/Rotavec Corona combination, milk fat.

Several values for one entry are separate records, joined by “and”; a condition that tells them apart may be missing. Equal entries are not always repeated. Where two headings read alike, the source gives them in different places. Where only a bound is given, the exact number is not on record here.

Take `CO[C@H]1C[C@H](O[C@H]2[C@H](C)O[C@@H](O[C@@H]3/C(C)=C/C[C@@H]4C[C@@H](C[C@]5(C=C[C@H](C)[C@@H](C6CCCCC6)O5)O4)OC(=O)[C@@H]4C=C(C)[C@@H](O)[C@H]5OC/C(=C\C=C\[C@@H]3C)[C@]54O)C[C@@H]2OC)O[C@@H](C)[C@@H]1O` [Doramectin]: in series [1], the “Residues in milk at 7 days after treatment relative to ACVM MRLs” value is “near or above the ACVM MRLs” and the “Residues in milk at 21 days after treatment relative to LOQ” value is recorded as “above the LOQ”. Moreover, the concentration at 21 day in series [1] (setting [5]) was under 1 ng/g. Also, the concentration at 21 day in series [1] (milk, 0.4 mg/kg, nominal 0.4 mg/kg single IM dose of ML/Rotavec Corona combination, milk (whole milk), read-out: ML residue in milk, Day 21) is 1 ng/g. Further, in series [1] (setting [6]), the “ML residue in milk, Day 7” value was 0.0058 mg/kg and 0.0037 mg/kg and 0.0077 mg/kg and 0.0079 mg/kg; the “ML residue in milk, Day 14” value is <0.0010 mg/kg and 0.0012 mg/kg and 0.0031 mg/kg and 0.0015 mg/kg; the “ML residue in milk, Day 21” value was <0.0010 mg/kg (2×) and 0.0020 mg/kg. Also, in series [1] (setting [7]), the “ML residue in milk, Day 7” value was 0.014 mg/kg and 0.0061 mg/kg and 0.011 mg/kg and 0.0056 mg/kg; the “ML residue in milk, Day 14” value is 0.0025 mg/kg (2×) and 0.0028 mg/kg and <0.0010 mg/kg; the “ML residue in milk, Day 21” value was 0.0014 mg/kg (2×) and <0.0010 mg/kg.

As for `CCC(C)C1OC2(C=CC1C)CC1CC(CC=C(C)C(OC3CC(OC)C(OC4CC(OC)C(NC(C)=O)C(C)O4)C(C)O3)C(C)C=CC=C3COC4C(O)C(C)=CC(C(=O)O1)C34O)O2` (stereo not shown) [Eprinomectin], in series [1] (all study animals (0.3 and 0.4 mg/kg IM)), the “Residues in milk at 14 days after treatment relative to LOQ” value was “below the limit of quantitation (LOQ)”. Besides, in series [1] (all study animals (0.3 and 0.4 mg/kg IM), compared with MRL), the “Residues in milk at 7 days after treatment” value is under 0.02 mg/kg. For the same compound, the “Withholding period (milk)” value in series [1] (estimated from residue data relative to the MRLs that apply in Europe) is 7 days. Besides, in series [1] (setting [6]), the “ML residue in milk, Day 14” value is under 0.0010 mg/kg and the “ML residue in milk, Day 21” value is given as under 0.0010 mg/kg. Besides, the “ML residue in milk, Day 7” value in series [1] (nominal 0.3 mg/kg single IM dose of ML/Rotavec Corona combination, milk (whole milk), listed as Eprinomectin B1a) was 0.0012 mg/kg and 0.0017 mg/kg and <0.0010 mg/kg and 0.0023 mg/kg. In addition, in series [1] (setting [7]), the “ML residue in milk, Day 14” value is listed as under 0.0010 mg/kg and the “ML residue in milk, Day 21” value is on record as under 0.0010 mg/kg. The “ML residue in milk, Day 7” value in series [1] (nominal 0.4 mg/kg single IM dose of ML/Rotavec Corona combination, milk (whole milk), listed as Eprinomectin B1a) was <0.0010 mg/kg (2×) and 0.0021 mg/kg and 0.0013 mg/kg. Also, in series [2] (0.3 mg/kg IM), the “Injection site reactions, Count, Day 1” value is reported as 0; the “Injection site reactions, Count, Day 3” value is 1; the “Injection site reactions, Count, Day 7” value is given as 1; the “Injection site reactions, Count, Day 14” value is given as 1. In addition, in series [2] (0.3 mg/kg IM), the “Injection site reactions, Count, Day 21” value was found to be 1 and the “Animals with injection site reactions that persisted at least until 21 days after treatment” value is “One”. In addition, in series [2] (0.4 mg/kg IM), the “Injection site reactions, Count, Day 1” value came to 2; the “Injection site reactions, Count, Day 3” value was determined as 2; the “Injection site reactions, Count, Day 7” value worked out at 1; the “Injection site reactions, Count, Day 14” value is 1. For the same compound, in series [2] (0.4 mg/kg IM), the “Injection site reactions, Count, Day 21” value is 1 and the “Animals with injection site reactions that persisted at least until 21 days after treatment” value was “One”. For the same compound, in series [3] (setting [8]), the “Parent compound share of residues in feces” value was “more than 85%” and the “Parent compound share of residues in tissues” value is listed as 90%. Further, in series [3] (cattle), the Milk-plasma coefficient is on record as at most 0.2. Further, in series [4], the “Elimination in milk, fold less than ivermectin or moxidectin” value is reported as 50 fold and the “Share of the total dose eliminated in the milk” value is on record as 0.1%.

For `CO/N=C1\C[C@]2(C[C@@H]3C[C@@H](C/C=C(\C)C[C@@H](C)/C=C/C=C4\CO[C@@H]5[C@H](O)C(C)=C[C@@H](C(=O)O3)[C@]45O)O2)O[C@H](/C(C)=C/C(C)C)[C@H]1C` [Moxidectin, moxidectin], the “Residues in milk at 7 days after treatment relative to ACVM MRLs” value in series [1] is on record as “near or above the ACVM MRLs”. The “Residues in milk at 21 days after treatment relative to LOQ” value in series [1] is given as “above the LOQ”. The concentration at 7 day came out at 800 ng/g in series [1] (milk fat, 0.3 mg/kg, nominal 0.3 mg/kg single IM dose of ML/Rotavec Corona combination, milk fat, read-out: ML residue in milk fat, Day 7); 860 ng/g in series [1] (milk fat, 0.4 mg/kg, nominal 0.4 mg/kg single IM dose of ML/Rotavec Corona combination, milk fat, read-out: ML residue in milk fat, Day 7); 40 ng/g in series [1] (milk, 0.3 mg/kg, nominal 0.3 mg/kg single IM dose of ML/Rotavec Corona combination, milk (whole milk), read-out: ML residue in milk, Day 7); 50 ng/g in series [1] (milk, 0.4 mg/kg, nominal 0.4 mg/kg single IM dose of ML/Rotavec Corona combination, milk (whole milk), read-out: ML residue in milk, Day 7). The concentration at 14 day is 140 ng/g in series [1] (milk fat, 0.3 mg/kg, nominal 0.3 mg/kg single IM dose of ML/Rotavec Corona combination, milk fat, read-out: ML residue in milk fat, Day 14) and 7.8 ng/g in series [1] (milk, 0.3 mg/kg, nominal 0.3 mg/kg single IM dose of ML/Rotavec Corona combination, milk (whole milk), read-out: ML residue in milk, Day 14). The concentration at 21 day in series [1] (milk fat, 0.3 mg/kg, nominal 0.3 mg/kg single IM dose of ML/Rotavec Corona combination, milk fat, read-out: ML residue in milk fat, Day 21) amounted to 59 ng/g; in series [1] (setting [5]), 2.6 ng/g. In addition, the “ML residue in milk, Day 7” value in series [1] (setting [6]) was 0.063 mg/kg and 0.042 mg/kg and 0.034 mg/kg; in series [1] (setting [7]), 0.044 mg/kg and 0.056 mg/kg and 0.037 mg/kg. Also, the “ML residue in milk, Day 14” value in series [1] (setting [6]) was 0.010 mg/kg and 0.0099 mg/kg and 0.0079 mg/kg; in series [1] (setting [7]), 0.0081 mg/kg and 0.012 mg/kg and 0.015 mg/kg and 0.0069 mg/kg. The “ML residue in milk, Day 21” value is 0.0040 mg/kg and 0.0031 mg/kg and 0.0041 mg/kg in series [1] (setting [6]); 0.0055 mg/kg (2×) and 0.0037 mg/kg and 0.0023 mg/kg in series [1] (setting [7]). For the same compound, the “ML residue in milk fat, Day 7” value in series [1] (setting [9]) is 1.1 mg/kg and 1.0 mg/kg and 0.75 mg/kg; in series [1] (setting [10]), 1.2 mg/kg and 1.5 mg/kg and 1.0 mg/kg. Further, the “ML residue in milk fat, Day 14” value in series [1] (setting [9]) is 0.26 mg/kg and 0.24 mg/kg and 0.18 mg/kg; in series [1] (setting [10]) it was 0.17 mg/kg and 0.37 mg/kg and 0.47 mg/kg and 0.15 mg/kg. The “ML residue in milk fat, Day 21” value in series [1] (setting [9]) is 0.080 mg/kg and 0.068 mg/kg and 0.075 mg/kg; in series [1] (setting [10]) it was 0.091 mg/kg and 0.12 mg/kg and 0.14 mg/kg and 0.057 mg/kg.
